Results on two compounds are retold here after ChEMBL document CHEMBL1144349, “A shape-based 3-D scaffold hopping method and its application to a bacterial protein-protein interaction” (J Med Chem, 2005).

A short description of the assay: Affinity for bacterial ZipA-FtsZ protein-protein interaction. Also noted: species or system Escherichia coli.

In the case of `CC(=O)Nc1cccc(-c2ccc3nnc(-c4ccccc4)n3n2)c1`, the affinity, expressed as Kd, was 73.9 µM.

The compound `CC(=O)N(C)c1cccc(-c2ccc3nnc(-c4cccnc4)n3n2)c1` came in with a Kd of 85.1 µM.
